Data as given in US20130210623A1, “PESTICIDAL MIXTURES INCLUDING ISOXAZOLINE DERIVATIVES” (SYNGENTA CROP PROTECTION LLC, priority 2010, published 2013).

Assays:
[1] = tested on: Heliothis virescens (Tobacco Budworm); test: Heliothis virescens egg/larval mortality on artificial diet, 24-well microtiter plate; assay type: in vivo; conditions: 4 days
Description: Heliothis virescens (Tobacco Budworm)
Eggs (0-24 h old) are placed in 24-well microtiter plate on artificial diet and treated with test solutions (DMSO) by pipetting. After an incubation period of 4 days, samples are checked for larval mortality.

[2] = tested on: Tetranychus urticae (Two-Spotted Spider Mite); test: Tetranychus urticae mixed population mortality on sprayed bean leaf discs; assay type: in vivo
Description: Tetranychus urticae (Two-Spotted Spider Mite)
Bean leaf discs on agar in 24-well microtiter plates are sprayed with test solutions (DMSO). After drying, the leaf discs are infested with mite populations of mixed ages. 8 days later, discs are checked for mixed population mortality.

## CC1(C)[C@H](C(=O)O[C@H](C#N)c2cccc(Oc3ccccc3)c2)[C@@H]1/C=C(\Cl)C(F)(F)F (racemic) [Lambda Cyhalothrin, lambda-cyhalothrin]
[1]; Table 2, Lambda Cyhalothrin alone 0.0125 ppm AI
  AVERAGE DEAD IN % Lambda Cyhalothrin: 0%
[1]; Table 2, Lambda Cyhalothrin alone 0.025 ppm AI
  AVERAGE DEAD IN % Lambda Cyhalothrin: 0%
[1]; Table 2, Lambda Cyhalothrin alone 0.05 ppm AI
  AVERAGE DEAD IN % Lambda Cyhalothrin: 0%
[1]; Table 2, Lambda Cyhalothrin alone 0.1 ppm AI
  AVERAGE DEAD IN % Lambda Cyhalothrin: 50%
[1]; Table 2, Lambda Cyhalothrin alone 0.2 ppm AI
  AVERAGE DEAD IN % Lambda Cyhalothrin: 80%
[1]; Table 2, Lambda Cyhalothrin alone 0.4 ppm AI
  AVERAGE DEAD IN % Lambda Cyhalothrin: 90%
[2]; Table 6, Lambda Cyhalothrin alone 6.25 ppm AI, 8 days
  AVERAGE DEAD IN % Lambda Cyhalothrin: 0%
[2]; Table 6, Lambda Cyhalothrin alone 12.5 ppm AI, 8 days
  AVERAGE DEAD IN % Lambda Cyhalothrin: 50%
[2]; Table 6, Lambda Cyhalothrin alone 25 ppm AI, 8 days
  AVERAGE DEAD IN % Lambda Cyhalothrin: 90%
[2]; Table 6, Lambda Cyhalothrin alone 50 ppm AI, 8 days
  AVERAGE DEAD IN % Lambda Cyhalothrin: 85%

## CN/C(=N\[N+](=O)[O-])NCc1cnc(Cl)s1 [Clothianidin, clothianidin]
[1]; Table 4, Clothianidin alone 1.5 ppm AI
  AVERAGE DEAD IN % Clothianidin: 0%
[1]; Table 4, Clothianidin alone 3 ppm AI
  AVERAGE DEAD IN % Clothianidin: 0%
[1]; Table 4, Clothianidin alone 6 ppm AI
  AVERAGE DEAD IN % Clothianidin: 25%
[1]; Table 4, Clothianidin alone 12 ppm AI
  AVERAGE DEAD IN % Clothianidin: 50%
[1]; Table 4, Clothianidin alone 24 ppm AI
  AVERAGE DEAD IN % Clothianidin: 85%
[2]; Table 8, Clothianidin alone 50 ppm AI, 8 days
  AVERAGE DEAD IN % Clothianidin: 0%
[2]; Table 8, Clothianidin alone 100 ppm AI, 8 days
  AVERAGE DEAD IN % Clothianidin: 0%
[2]; Table 8, Clothianidin alone 200 ppm AI, 8 days
  AVERAGE DEAD IN % Clothianidin: 0%
[2]; Table 8, Clothianidin alone 400 ppm AI, 8 days
  AVERAGE DEAD IN % Clothianidin: 0%
[2]; Table 8, Clothianidin alone 800 ppm AI, 8 days
  AVERAGE DEAD IN % Clothianidin: 0%

## Cc1cc(C2=NO[C@@](c3cc(Cl)cc(Cl)c3)(C(F)(F)F)C2)ccc1C(=O)NCC(=O)NCC(F)(F)F [I-A2]
[1]; Table 1, I-A2 alone 0.025 ppm AI
  AVERAGE DEAD IN % COMPOUND I-A2: 0%
[1]; Table 1, I-A2 alone 0.05 ppm AI
  AVERAGE DEAD IN % COMPOUND I-A2: 0%
[1]; Table 1, I-A2 alone 0.1 ppm AI
  AVERAGE DEAD IN % COMPOUND I-A2: 5%
[1]; Table 1, I-A2 alone 0.2 ppm AI
  AVERAGE DEAD IN % COMPOUND I-A2: 75%
[1]; Table 1, I-A2 alone 0.4 ppm AI
  AVERAGE DEAD IN % COMPOUND I-A2: 94%
[1]; Table 1, I-A2 alone 0.8 ppm AI
  AVERAGE DEAD IN % COMPOUND I-A2: 99%
[1]; Table 2, I-A2 alone 0.025 ppm AI
  AVERAGE DEAD IN % COMPOUND I-A2: 0%
[1]; Table 2, I-A2 alone 0.05 ppm AI
  AVERAGE DEAD IN % COMPOUND I-A2: 0%
[1]; Table 2, I-A2 alone 0.1 ppm AI
  AVERAGE DEAD IN % COMPOUND I-A2: 5%
[1]; Table 2, I-A2 alone 0.2 ppm AI
  AVERAGE DEAD IN % COMPOUND I-A2: 75%
[1]; Table 2, I-A2 alone 0.4 ppm AI
  AVERAGE DEAD IN % COMPOUND I-A2: 94%
[1]; Table 2, I-A2 alone 0.8 ppm AI
  AVERAGE DEAD IN % COMPOUND I-A2: 99%
[1]; Table 3, I-A2 alone 0.05 ppm AI
  AVERAGE DEAD IN % COMPOUND I-A2: 0%
[1]; Table 3, I-A2 alone 0.1 ppm AI
  AVERAGE DEAD IN % COMPOUND I-A2: 0%
[1]; Table 3, I-A2 alone 0.2 ppm AI
  AVERAGE DEAD IN % COMPOUND I-A2: 73%
[1]; Table 3, I-A2 alone 0.4 ppm AI
  AVERAGE DEAD IN % COMPOUND I-A2: 89%
[1]; Table 3, I-A2 alone 0.8 ppm AI
  AVERAGE DEAD IN % COMPOUND I-A2: 98%
[1]; Table 4, I-A2 alone 0.05 ppm AI
  AVERAGE DEAD IN % COMPOUND I-A2: 0%
[1]; Table 4, I-A2 alone 0.1 ppm AI
  AVERAGE DEAD IN % COMPOUND I-A2: 0%
[1]; Table 4, I-A2 alone 0.2 ppm AI
  AVERAGE DEAD IN % COMPOUND I-A2: 73%
[1]; Table 4, I-A2 alone 0.4 ppm AI
  AVERAGE DEAD IN % COMPOUND I-A2: 89%
[1]; Table 4, I-A2 alone 0.8 ppm AI
  AVERAGE DEAD IN % COMPOUND I-A2: 98%
[2]; Table 5, I-A2 alone 0.1 ppm AI, 8 days
  AVERAGE DEAD IN % COMPOUND I-A2: 17%
[2]; Table 5, I-A2 alone 0.2 ppm AI, 8 days
  AVERAGE DEAD IN % COMPOUND I-A2: 83%
[2]; Table 5, I-A2 alone 0.4 ppm AI, 8 days
  AVERAGE DEAD IN % COMPOUND I-A2: 100%
[2]; Table 6, I-A2 alone 0.1 ppm AI, 8 days
  AVERAGE DEAD IN % COMPOUND I-A2: 17%
[2]; Table 6, I-A2 alone 0.2 ppm AI, 8 days
  AVERAGE DEAD IN % COMPOUND I-A2: 83%
[2]; Table 6, I-A2 alone 0.8 ppm AI, 8 days
  AVERAGE DEAD IN % COMPOUND I-A2: 100%
[2]; Table 7, I-A2 alone 0.025 ppm AI, 0 * = 0% control assumed since control at the higher rate was also 0%
  AVERAGE DEAD IN % COMPOUND I-A2: 0 * %
[2]; Table 7, I-A2 alone 0.05 ppm AI, 0 * = 0% control assumed since control at the higher rate was also 0%
  AVERAGE DEAD IN % COMPOUND I-A2: 0 * %
[2]; Table 7, I-A2 alone 0.1 ppm AI, 8 days
  AVERAGE DEAD IN % COMPOUND I-A2: 0%
[2]; Table 7, I-A2 alone 0.2 ppm AI, 8 days
  AVERAGE DEAD IN % COMPOUND I-A2: 85%
[2]; Table 7, I-A2 alone 0.4 ppm AI, 8 days
  AVERAGE DEAD IN % COMPOUND I-A2: 95%
[2]; Table 8, I-A2 alone 0.1 ppm AI, 8 days
  AVERAGE DEAD IN % COMPOUND I-A2: 0%
[2]; Table 8, I-A2 alone 0.2 ppm AI, 8 days
  AVERAGE DEAD IN % COMPOUND I-A2: 85%
[2]; Table 8, I-A2 alone 0.4 ppm AI, 8 days
  AVERAGE DEAD IN % COMPOUND I-A2: 95%

## CCOC(=O)OC1=C(c2cc(C)ccc2C)C(=O)N[C@]12CC[C@@H](OC)CC2 [Spirotetramat, spirotetramat]
[1]; Table 3, Spirotetramat alone 25 ppm AI
  AVERAGE DEAD IN % Spirotetramat: 10%
[1]; Table 3, Spirotetramat alone 50 ppm AI
  AVERAGE DEAD IN % Spirotetramat: 0%
[1]; Table 3, Spirotetramat alone 100 ppm AI
  AVERAGE DEAD IN % Spirotetramat: 0%
[1]; Table 3, Spirotetramat alone 200 ppm AI
  AVERAGE DEAD IN % Spirotetramat: 0%
[1]; Table 3, Spirotetramat alone 400 ppm AI
  AVERAGE DEAD IN % Spirotetramat: 15%
[1]; Table 3, Spirotetramat alone 800 ppm AI
  AVERAGE DEAD IN % Spirotetramat: 80%
[2]; Table 7, Spirotetramat alone 12.5 ppm AI, 8 days
  AVERAGE DEAD IN % Spirotetramat: 75%
[2]; Table 7, Spirotetramat alone 25 ppm AI, 8 days
  AVERAGE DEAD IN % Spirotetramat: 85%
[2]; Table 7, Spirotetramat alone 50 ppm AI, 8 days
  AVERAGE DEAD IN % Spirotetramat: 90%
[2]; Table 7, Spirotetramat alone 100 ppm AI, 8 days
  AVERAGE DEAD IN % Spirotetramat: 90%
[2]; Table 7, Spirotetramat alone 200 ppm AI, 8 days
  AVERAGE DEAD IN % Spirotetramat: 90%

## abamectin
[1]; Table 1, Abamectin alone 0.1 ppm AI
  AVERAGE DEAD IN % Abamectin: 0%
[1]; Table 1, Abamectin alone 0.2 ppm AI
  AVERAGE DEAD IN % Abamectin: 0%
[1]; Table 1, Abamectin alone 0.4 ppm AI
  AVERAGE DEAD IN % Abamectin: 10%
[1]; Table 1, Abamectin alone 0.8 ppm AI
  AVERAGE DEAD IN % Abamectin: 65%
[1]; Table 1, Abamectin alone 1.6 ppm AI
  AVERAGE DEAD IN % Abamectin: 90%
[1]; Table 1, Abamectin alone 3.2 ppm AI
  AVERAGE DEAD IN % Abamectin: 90%
[2]; Table 5, Abamectin alone 0.0125 ppm AI, 8 days
  AVERAGE DEAD IN % Abamectin: 0%
[2]; Table 5, Abamectin alone 0.025 ppm AI, 8 days
  AVERAGE DEAD IN % Abamectin: 25%
[2]; Table 5, Abamectin alone 0.05 ppm AI, 8 days
  AVERAGE DEAD IN % Abamectin: 55%
[2]; Table 5, Abamectin alone 0.1 ppm AI, 8 days
  AVERAGE DEAD IN % Abamectin: 55%
[2]; Table 5, Abamectin alone 0.2 ppm AI, 8 days
  AVERAGE DEAD IN % Abamectin: 60%
